{"source": "paper PMC7562955", "about": "(Nature Communications, 2020)", "key": {"[1]": {"molecular_target": "T1, TLR1/2 (Homo sapiens, UniProt O60603+Q15399)", "T1 construct": "Human Peripheral Blood Mononuclear cells (hPBMCs) were collected from healthy adult donors; endogenous in cells; host or cells: primary human PBMCs", "T1 sequence (Q15399 25-786)": "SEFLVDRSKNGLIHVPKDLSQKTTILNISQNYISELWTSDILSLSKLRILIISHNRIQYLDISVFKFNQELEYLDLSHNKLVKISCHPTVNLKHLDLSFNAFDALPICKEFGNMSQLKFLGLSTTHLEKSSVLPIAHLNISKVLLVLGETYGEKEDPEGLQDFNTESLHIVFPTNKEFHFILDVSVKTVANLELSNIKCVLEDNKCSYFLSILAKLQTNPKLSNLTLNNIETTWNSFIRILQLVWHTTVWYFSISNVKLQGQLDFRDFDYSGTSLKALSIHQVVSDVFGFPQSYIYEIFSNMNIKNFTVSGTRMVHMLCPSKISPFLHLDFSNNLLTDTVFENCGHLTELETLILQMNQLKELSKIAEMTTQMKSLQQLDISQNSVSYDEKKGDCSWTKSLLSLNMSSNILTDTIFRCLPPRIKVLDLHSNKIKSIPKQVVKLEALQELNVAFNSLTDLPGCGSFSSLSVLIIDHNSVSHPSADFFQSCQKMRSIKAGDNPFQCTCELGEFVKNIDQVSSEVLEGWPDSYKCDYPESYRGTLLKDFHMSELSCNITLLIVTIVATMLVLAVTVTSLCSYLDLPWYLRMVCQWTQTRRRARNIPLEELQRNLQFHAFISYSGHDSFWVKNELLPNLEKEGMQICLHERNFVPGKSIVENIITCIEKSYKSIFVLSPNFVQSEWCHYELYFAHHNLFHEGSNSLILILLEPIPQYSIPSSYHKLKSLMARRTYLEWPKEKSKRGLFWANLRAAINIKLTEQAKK", "T1 sequence (O60603 19-784 limits assumed)": "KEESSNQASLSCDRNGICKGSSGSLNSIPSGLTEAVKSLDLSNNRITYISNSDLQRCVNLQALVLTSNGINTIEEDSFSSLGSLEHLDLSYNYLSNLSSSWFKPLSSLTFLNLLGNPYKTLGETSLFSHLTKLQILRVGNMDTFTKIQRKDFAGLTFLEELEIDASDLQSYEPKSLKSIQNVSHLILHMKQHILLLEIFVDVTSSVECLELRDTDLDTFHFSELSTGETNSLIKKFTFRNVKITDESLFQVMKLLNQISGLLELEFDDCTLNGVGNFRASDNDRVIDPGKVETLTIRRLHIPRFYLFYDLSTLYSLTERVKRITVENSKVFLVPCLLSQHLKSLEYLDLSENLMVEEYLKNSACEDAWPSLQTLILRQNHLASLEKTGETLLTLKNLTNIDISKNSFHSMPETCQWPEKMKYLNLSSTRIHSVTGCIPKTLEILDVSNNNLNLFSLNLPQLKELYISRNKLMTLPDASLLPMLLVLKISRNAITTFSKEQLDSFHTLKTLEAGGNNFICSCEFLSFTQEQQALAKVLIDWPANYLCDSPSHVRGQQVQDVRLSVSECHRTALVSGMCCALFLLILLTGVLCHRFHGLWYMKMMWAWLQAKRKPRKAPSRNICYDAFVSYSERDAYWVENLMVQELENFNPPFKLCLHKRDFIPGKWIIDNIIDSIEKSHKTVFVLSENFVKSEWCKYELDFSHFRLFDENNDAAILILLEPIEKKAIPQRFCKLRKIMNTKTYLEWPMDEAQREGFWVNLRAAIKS", "assay": "TNF-α production by human PBMC stimulated by TLR1/2 ligand Pam3CSK4 (ELISA)", "type": "cell-based", "conditions": "human PBMCs, 2.5 μM"}, "[2]": {"molecular_target": "T2, TLR7 (Homo sapiens, UniProt Q9NYK1)", "T2 sequence (Q9NYK1 27-1049)": "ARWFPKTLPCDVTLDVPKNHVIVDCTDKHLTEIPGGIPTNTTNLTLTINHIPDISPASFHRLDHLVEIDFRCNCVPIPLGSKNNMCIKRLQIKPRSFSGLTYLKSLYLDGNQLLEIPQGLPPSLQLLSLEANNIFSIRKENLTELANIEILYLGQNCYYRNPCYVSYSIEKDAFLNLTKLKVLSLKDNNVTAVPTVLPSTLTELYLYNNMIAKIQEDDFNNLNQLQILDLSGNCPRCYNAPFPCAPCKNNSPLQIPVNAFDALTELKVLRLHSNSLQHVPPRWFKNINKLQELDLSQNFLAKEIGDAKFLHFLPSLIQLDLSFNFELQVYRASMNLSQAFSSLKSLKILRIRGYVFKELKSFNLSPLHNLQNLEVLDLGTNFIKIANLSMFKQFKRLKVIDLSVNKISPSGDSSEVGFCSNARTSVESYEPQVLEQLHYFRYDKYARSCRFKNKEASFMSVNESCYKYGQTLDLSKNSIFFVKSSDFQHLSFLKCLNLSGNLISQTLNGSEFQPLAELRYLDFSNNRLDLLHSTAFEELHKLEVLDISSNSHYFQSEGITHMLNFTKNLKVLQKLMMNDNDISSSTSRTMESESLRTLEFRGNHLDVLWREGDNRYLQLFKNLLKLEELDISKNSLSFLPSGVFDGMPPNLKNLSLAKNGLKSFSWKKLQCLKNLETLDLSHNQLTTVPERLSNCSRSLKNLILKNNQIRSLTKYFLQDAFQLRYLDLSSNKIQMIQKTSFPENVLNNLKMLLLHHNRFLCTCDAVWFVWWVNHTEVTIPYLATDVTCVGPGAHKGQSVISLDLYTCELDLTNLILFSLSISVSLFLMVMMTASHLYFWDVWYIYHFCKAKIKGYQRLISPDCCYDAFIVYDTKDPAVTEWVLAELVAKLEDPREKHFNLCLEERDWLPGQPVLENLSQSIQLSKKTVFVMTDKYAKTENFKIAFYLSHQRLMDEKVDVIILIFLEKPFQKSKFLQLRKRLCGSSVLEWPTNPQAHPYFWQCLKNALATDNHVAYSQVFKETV", "assay": "TLR7 inhibition assay in primary human PBMCs (R848-induced IFN-α, ELISA)", "type": "cell-based", "set-up": "Human Peripheral Blood Mononuclear cells (hPBMCs) were collected from healthy adult donors; endogenous in cells; host or cells: primary human PBMCs (plasmacytoid DCs produce the IFN-α)", "conditions": "for R848-induced IFN-α production: 2.5 μM; for Mean IFN-α / IFN-α: antagonist 2.5 μM; for Mean IFN-α: n = 3; for IFN-α: single replicate", "procedure": "Human Peripheral Blood Mononuclear cells (hPBMCs) were collected from healthy adult donors. hPBMCs were cultured in round-bottom 96-well plates (BD Falcon, Durham, NC, USA) with a density of 5 × 10^5 cells/well. Plated cells were pretreated with DMSO or 2.5 μM inhibitors for 3 h and then stimulated by indicated ligands, such as R848 or TLR1/2 specific ligand Pam3CSK4 (Invivogen, HongKong, China), for 20 h in […] of RPMI 1640 medium (Gibco, Paisley, UK) supplemented with 10% FBS, Penicillin-Streptomycin-Glutamine (Gibco, Paisley, UK), 50 μM 2-ME medium at 37 °C in the presence of 5% CO2. Supernatants were collected to measure secreted cytokines by ELISA. Concentration of human IFN-α and TNF-α in the supernatants was measured with Verikine Human IFN-α Multi-Subtype Serum ELISA Kit (PBL Assay Science, Piscataway, NJ, USA) and Human TNF-α Uncoated ELISA (ThermoFisher Scientific, Carlsbad, CA, USA), respectively. This study was approved by the Research Ethics Committee of IMSUT (accession number: 30-100-B20190419)."}, "[3]": {"test_system": "TLR7", "assay": "Glutaraldehyde crosslinking assay of ligand-induced TLR7 dimerization", "type": "biochemical, Monkey (Macaca mulatta)", "conditions": "for ligand-induced TLR7 dimerization: neutral or acidic pH", "procedure": "The recombinant TLR7 proteins expressed in Drosophila S2 cells (Thermo Fisher Scientific) using Monkey (Macaca mulatta) TLR7 extracellular domain expression construct with N167Q, N399Q, N488Q and N799Q mutations and cleavable Z-loop and C-terminal protein A tag were prepared and were stored in a buffer containing 10 mM Tris-HCl pH 7.5 and 150 mM NaCl at concentrations of 10–15 mg ml^−1. Briefly, the purification steps included IgG affinity purification, the Z-loop and the protein A tag cleavage, and gel-filtration chromatography. Glycan-trimmed TLR7 proteins, expressed in the presence of 1.5 mg l^−1 kifunensine (Glycosyn) and treated by Endo Hf (New England Biolabs) were used for crystallization. Glycan-untrimmed proteins were used in ITC analysis, crosslinking assay, negative-staining EM and cryo-EM (200 kV microscopes) analyses. Glycan-trimmed TLR7 proteins with partially-uncleaved protein A tag were used for cryo-EM analysis using Tatan Krios (Supplementary Fig. 11).\nFor glutaraldehyde crosslinking assay (Fig. 2b), proteins were buffer exchanged into a buffer containing 10 mM HEPES-NaOH, pH 8.0, 150 mM NaCl and were concentrated to ~13 mg/ml using Amicon Ultra devices (Merck). Protein concentrations were adjusted to 25 µM using buffers containing 10 mM HEPES-NaOH, pH 7.0, 150 mM NaCl (for neutral condition) or 50 mM citrate-NaOH pH 5.0, 150 mM NaCl (for acidic condition). Cpd-3, Cpd-6 or Cpd-7 were added to final concentrations of 100 or 1000 µM. The reactions were started by adding glutaraldehyde (Wako) to a final concentration of 5 mM (for neutral condition) or 20 mM (for acidic condition), incubated at ambient temperature for 25 min and quenched by adding Tris-HCl pH 7.5 to a final concentration of 100 mM. Crosslinked samples were analyzed by non-reducing SDS-PAGE. Quantitative analysis of the SDS-PAGE gel image was performed with Image-J."}, "[4]": {"conditions": "pH 5.0, ligand + (100 or 1000 µM used)"}, "[5]": {"conditions": "pH 5.0, ligand ++ (100 or 1000 µM used)"}, "[6]": {"conditions": "pH 7.0, ligand + (100 or 1000 µM used)"}, "[7]": {"conditions": "pH 7.0, ligand ++ (100 or 1000 µM used)"}}}
{"smiles": "CCOc1nc(C)c2nc(-c3cncc(F)c3)n(Cc3ccc(CN4C[C@@H]5C[C@H]4CN5C)cc3)c2n1", "note": "[Cpd-7]", "values": [{"measurement": "cytotoxicity", "setting": "[1]", "value": "not cytotoxic"}, {"measurement": "R848-induced IFN-α production", "setting": "[2]", "value": "completely blocked"}, {"measurement": "Mean IFN-α", "setting": "[2]; activator None", "value": 0, "unit": "pg/mL"}, {"measurement": "IFN-α", "setting": "[2]; activator None", "value": 0, "unit": "pg/mL"}, {"measurement": "Mean IFN-α", "setting": "[2]; activator R848 (200 nM)", "value": 0, "unit": "pg/mL"}, {"measurement": "IFN-α", "setting": "[2]; activator R848 (200 nM)", "value": 0, "unit": "pg/mL"}, {"measurement": "ligand-induced TLR7 dimerization", "setting": "[3]", "value": "increased only in acidic conditions"}, {"measurement": "Band intensity Dimer", "setting": "[3]; [4]", "value": 8301.55}, {"measurement": "Band intensity Monomer", "setting": "[3]; [4]", "value": 16518.6}, {"measurement": "Band intensity Dimer", "setting": "[3]; [5]", "value": 8600.5}, {"measurement": "Band intensity Monomer", "setting": "[3]; [5]", "value": 15510.2}, {"measurement": "Band intensity Dimer", "setting": "[3]; [6]", "value": 9334.79}, {"measurement": "Band intensity Monomer", "setting": "[3]; [6]", "value": 16326.2}, {"measurement": "Band intensity Dimer", "setting": "[3]; [7]", "value": 12602.5}, {"measurement": "Band intensity Monomer", "setting": "[3]; [7]", "value": 14640.4}]}
{"smiles": "CCOc1nc(N)c2nc(-c3cncc(F)c3)n(Cc3ccc(CN4C[C@@H]5C[C@H]4CN5C)cc3)c2n1", "note": "[Cpd-6]", "values": [{"measurement": "cytotoxicity", "setting": "[1]", "value": "not cytotoxic"}, {"measurement": "R848-induced IFN-α production", "setting": "[2]", "value": "completely blocked"}, {"measurement": "Mean IFN-α", "setting": "[2]; activator None", "value": 0, "unit": "pg/mL"}, {"measurement": "IFN-α", "setting": "[2]; activator None", "value": 0, "unit": "pg/mL"}, {"measurement": "Mean IFN-α", "setting": "[2]; activator R848 (200 nM)", "value": 0, "unit": "pg/mL"}, {"measurement": "IFN-α", "setting": "[2]; activator R848 (200 nM)", "value": 0, "unit": "pg/mL"}, {"measurement": "ligand-induced TLR7 dimerization", "setting": "[3]", "value": "increased only in acidic conditions"}, {"measurement": "Band intensity Dimer", "setting": "[3]; [4]", "value": 8170.97}, {"measurement": "Band intensity Monomer", "setting": "[3]; [4]", "value": 16240}, {"measurement": "Band intensity Dimer", "setting": "[3]; [5]", "value": 8032.26}, {"measurement": "Band intensity Monomer", "setting": "[3]; [5]", "value": 12976}, {"measurement": "Band intensity Dimer", "setting": "[3]; [6]", "value": 10536.9}, {"measurement": "Band intensity Monomer", "setting": "[3]; [6]", "value": 14418}, {"measurement": "Band intensity Dimer", "setting": "[3]; [7]", "value": 14285.1}, {"measurement": "Band intensity Monomer", "setting": "[3]; [7]", "value": 11832.4}]}
